# Measured values reported in patent publication US6589961B2, “9-alkylamino-1-nitroacridine derivatives” (New York Medical College, priority 2000, dated 2003).
# Several values for one entry are separate records, joined by “and”; a condition that tells them apart may be missing. Equal entries are not always repeated.
# Legend:
# Assay type in all cases: in vivo
# [1] = test system: ascites adenocarcinoma Walker 256; test: Antitumor activity against ascites adenocarcinoma Walker 256 in rats (survival); settings: Wistar rats; for Optimal dose: dose giving the highest antitumor activity, i.p. on days 3, 4 and 5 after tumor transplantation, five doses tested; for Antitumor activity against Walker256 (Survival) Test/Control: mean survival time of test group vs control at the optimal dose, i.p. on days 3, 4 and 5
# Procedure: Tumors are transplanted weekly into Wistar rats by intraperitoneal inoculation of 10^6 tumor cells. In the experiments, Walker carcinosarcoma 256 cells are transplanted on day 0 in Wistar rats weighing 75-100 g. by i.p. injection of 10^6 cells per animal. Each acridine is administered i.p. on days 3, 4, and 5 after tumor transplantation. Five rats are in each group at a given drug dose level and a group of 10 rats served as control for all test groups. […] Each acridine is tested at five different doses. The activity of the drug T/C (%) is expressed as % increase in mean survival time (in days) of test group (T) to the mean survival time (in days) of the control (C). Usually, the antitumor activity is presented only for the optimal dose (O.D. mg/kg/day) of tested compounds, at which the highest antitumor activity is observed.
# Dunning G cells = test: Antitumor activity in Dunning G induced tumors in Copenhagen rats; settings: two weeks after treatment withdrawal
# Procedure: Four to five week old Copenhagen rats are purchased from Harlan Sprague Dawley, Indianapolis, Ind., and allowed to acclimate for one week, feeding on Purina 5001 rat chow. At the end of one week, the rats are randomized into different experimental groups. Body weights of the animals measured twice a week.
# Live Dunning G cells (one million/rat) are injected subcutaneously in all animals to induce tumors. Dunning G cells are non-metastatic tumor producing prostate cancer cells derived from spontaneous tumors from Copenhagen rats. Dunning G and MAT-LyLu cells (Yedavelli et al, 1999, Int. J. Mol. Med. 4:243-248) are grown in RPMI 1640 containing 10% fetal bovine serum (FBS) supplemented with penicillin (50 IU/mL), streptomycin (50 μg/mL), 2 mM L-glutamine and 2.5 mM dexamethasone. Cells are fed twice a week and are trypsinized with 0.05% trypsin-EDTA at 70-80 percent cell confluency.
# Animals are injected i.p twice a week with 9-(2′-hydroxyethylamino)-4-methyl-1-nitroacridine (0.8 or 1.0 mg/Kg body weight) 1-nitro-9-hydroxyethylaminoacridine (0.6 mg/Kg body weight) twice a week for three weeks. Injections are started on day 25 for animals injected with Dunning G cells when tumors are palpable (0.5 cm). All animals are housed in hanging cages with three/four animals per cage and had ad libitum access to food and drinking water and are kept on twelve hour diurnal cycle. All injections and tumor measurements are performed under light anesthesia (metofane inhalation). Experimental end point measurements include body weight, tumor incidence. The experiment is terminated when the tumor size in the control animals is 3 cms diameter. Sacrifice of the animals is done by carbon dioxide asphyxiation.
# Stock solution of 9-(2′-hydroxyethylamino)-4-methyl-1-nitroacridine is made in dimethylsulfoxide at 0.16 mg/ml. All drugs for injection in animals are diluted in PBS such that the total volume injected is between 0.1 to 0.2 mL. Stock solution of 1-nitro-9-hydroxyethylaminoacridine is made in dimethylsulfoxide at 0.12 mg/ml.
# TSU cells = test: Antitumor activity on human prostate tumor (TSU) xenografts in nude mice; settings: Balb c/nu/nu mice
# Procedure: Tumors are induced in six week old Balb c/nu/nu mice which are allowed to acclimate for two weeks by subcutaneous injection of 2×10^6 TSU cells per mouse. TSU cells are human prostate cancer cells (Iizumi et al., 1987, J. Urol. 137:1304-1306). TSU cells are grown in RPMI-1640 medium supplemented with 10% fetal bovine serum and the antibiotics penicillin (50 IU/ml), streptomycin (50 μg/ml) and 2 mM L-glutamine. Cells are fed with fresh media twice a week and are trypsinized using 0.05% trypsin-EDTA. Cells used for injection are always in the log phase of their growth (70-80%) confluent flask and cell viability is checked by trypan-blue exclusion test prior to injection. Only cells >95% […] are used.
# Tumors are palpable in the mice by day 7 when treatment with the two drugs, mitoxantrone (0.6 mg/kg) and 9-(2′-hydroxyethylamino)-4-methyl-1-nitroacridine (0.8 mg/kg) is initiated. Treatment is continued twice weekly for three weeks. Mice are lightly anesthetized and tumors are measured and are weighed weekly. The stock concentrations of the drug are 0.12 mg/ml in PBS for mitoxantrone and 0.16 mg/ml in dimethylsulfoxide (DMSO) for 9-(2′-hydroxyethylamino)-4-methyl-1-nitroacridine. Mice are housed 5 animals/cage.
compound,measurement,setting,value
9-(4′-hydroxypropylamino)-7-methoxy-4-methyl-1-nitroacridine,Optimal dose,[1],8 mg/kg
same,Antitumor activity against Walker256 (Survival) Test/Control,[1],183%
"O=[N+]([O-])c1cccc2nc3ccccc3c(NCCO)c12 [1-nitro-9-hydroxyethylaminoacridine, reference compound]",reduction of tumors,Dunning G cells; 0.6 mg/Kg body weight i.p. twice a week for three weeks (FIG. 1 legend says 0.8 mg/Kg),50%
CC(=O)OCCNc1c2ccccc2nc2cccc([N+](=O)[O-])c12 [9-(2′-acetoxyethylamino)-1-nitroacridine],Optimal dose,[1],1 mg/kg
same,Antitumor activity against Walker256 (Survival) Test/Control,[1],167%
CC(=O)OCCNc1c2ccccc2nc2c(C)ccc([N+](=O)[O-])c12 [9-(2′-acetoxyethylamino)-4-methyl-1-nitroacridine],Optimal dose,[1],8 mg/kg
same,Antitumor activity against Walker256 (Survival) Test/Control,[1],233%
COc1ccc2nc3c(C)ccc([N+](=O)[O-])c3c(NCCOC(C)=O)c2c1 [9-(2′-acetoxyethylamino)-7-methoxy-4-methyl-1-nitroacridine],Optimal dose,[1],25 mg/kg
same,Antitumor activity against Walker256 (Survival) Test/Control,[1],133%
CCCCOCCNc1c2ccccc2nc2c(C)ccc([N+](=O)[O-])c12 [9-(2′-butyloxyethylamino)-4-methyl-1-nitroacridine],Optimal dose,[1],8 mg/kg
same,Antitumor activity against Walker256 (Survival) Test/Control,[1],217%
COc1ccc([N+](=O)[O-])c2c(NCCO)c3ccccc3nc12 [9-(2′-hydroxyethylamino)-4-methoxy-1-nitroacridine],Optimal dose,[1],16 mg/kg
same,Antitumor activity against Walker256 (Survival) Test/Control,[1],200%
Cc1ccc([N+](=O)[O-])c2c(NCCO)c3ccccc3nc12 [9-(2′-hydroxyethylamino)-4-methyl-1-nitroacridine],Optimal dose,[1],4 mg/kg
same,Antitumor activity against Walker256 (Survival) Test/Control,[1],217%
same,reduction of tumors,Dunning G cells; 0.8 mg/kg i.p. twice a week for three weeks,65%
same,reduction of tumors,Dunning G cells; 1.0 mg/kg i.p. twice a week for three weeks,75%
same,effect on tumors (FIG. 2),"TSU cells; 0.8 mg/kg twice weekly for three weeks from day 7, observation up to 11 weeks",reduction of the tumors until completely tumor free by five weeks and remained in force until 11 weeks
COc1ccc2nc3cccc([N+](=O)[O-])c3c(NCCO)c2c1 [9-(2′-hydroxyethylamino)-7-methoxy-1-nitroacridine],Optimal dose,[1],2 mg/kg
same,Antitumor activity against Walker256 (Survival) Test/Control,[1],150% and 200%
COc1ccc2nc3c(C)ccc([N+](=O)[O-])c3c(NCCO)c2c1 [9-(2′-hydroxyethylamino)-7-methoxy-4-methyl-1-nitroacridine],Optimal dose,[1],16 mg/kg
same,Antitumor activity against Walker256 (Survival) Test/Control,[1],233%
CCC(=O)OCCNc1c2ccccc2nc2cccc([N+](=O)[O-])c12 [9-(2′-propionoxyethylamino)-1-nitroacridine],Optimal dose,[1],1 mg/kg
same,Antitumor activity against Walker256 (Survival) Test/Control,[1],200%
CCC(=O)OCCNc1c2ccccc2nc2c(C)ccc([N+](=O)[O-])c12 [9-(2′-propionoxyethylamino)-4-methyl-1-nitroacridine],Optimal dose,[1],8 mg/kg
same,Antitumor activity against Walker256 (Survival) Test/Control,[1],214%
CCC(=O)OC(C)CNc1c2ccccc2nc2c(C)ccc([N+](=O)[O-])c12 (stereo not drawn) [9-(2′-propionoxypropylamino)-4-methyl-1-nitroacridine],Optimal dose,[1],8 mg/kg
same,Antitumor activity against Walker256 (Survival) Test/Control,[1],257%
CC(=O)OCCCNc1c2ccccc2nc2c(C)ccc([N+](=O)[O-])c12 [9-(3′-acetoxypropylamino)-4-methyl-1-nitroacridine],Optimal dose,[1],8 mg/kg
same,Antitumor activity against Walker256 (Survival) Test/Control,[1],157%
COc1ccc2nc3c(C)ccc([N+](=O)[O-])c3c(NCCCOC(C)=O)c2c1 [9-(3′-acetoxypropylamino)-7-methoxy-4-methyl-1-nitroacridine],Optimal dose,[1],16 mg/kg
same,Antitumor activity against Walker256 (Survival) Test/Control,[1],217%
COc1ccc([N+](=O)[O-])c2c(NCCCO)c3ccccc3nc12 [9-(3′-hydroxypropylamino)-4-methoxy-1-nitroacridine],Optimal dose,[1],2 mg/kg
same,Antitumor activity against Walker256 (Survival) Test/Control,[1],157%
Cc1ccc([N+](=O)[O-])c2c(NCCCO)c3ccccc3nc12 [9-(3′-hydroxypropylamino)-4-methyl-1-nitroacridine],Optimal dose,[1],2 mg/kg
same,Antitumor activity against Walker256 (Survival) Test/Control,[1],233%
COc1ccc2nc3cccc([N+](=O)[O-])c3c(NCCCO)c2c1 [9-(3′-hydroxypropylamino)-7-methoxy-1-nitroacridine],Optimal dose,[1],0.5 mg/kg
same,Antitumor activity against Walker256 (Survival) Test/Control,[1],182% and 229%
COc1ccc2nc3c(C)ccc([N+](=O)[O-])c3c(NCCCO)c2c1 [9-(3′-hydroxypropylamino)-7-methoxy-4-methyl-1-nitroacridine],Optimal dose,[1],16 mg/kg
same,Antitumor activity against Walker256 (Survival) Test/Control,[1],183%
COc1ccc([N+](=O)[O-])c2c(NCCCCO)c3ccccc3nc12 [9-(4′-hydroxybutylamino)-4-methoxy-1-nitroacridine],Optimal dose,[1],32 mg/kg
same,Antitumor activity against Walker256 (Survival) Test/Control,[1],200%
COc1ccc2nc3cccc([N+](=O)[O-])c3c(NCCCCO)c2c1 [9-(4′-hydroxybutylamino)-7-methoxy-1-nitroacridine],Optimal dose,[1],2 mg/kg
same,Antitumor activity against Walker256 (Survival) Test/Control,[1],157%
"O=C1c2c(O)ccc(O)c2C(=O)c2c(NCCNCCO)ccc(NCCNCCO)c21 [mitoxantrone, reference compound]",effect on tumors (FIG. 2),TSU cells; 0.6 mg/kg twice weekly for three weeks from day 7,showed a reduction till three weeks and the tumors started growing eight weeks after withdrawal of therapy
